Columns and labels:
[1] = molecular target: T1, LANA–DNA interaction (LANA DBD aa934-1162 wild type / LBS1) (Human herpesvirus 8 type P, UniProt Q9QR71); experiment: EMSA, LANA DBD wild type with LBS1; format: biochemical, Kaposi's sarcoma-associated herpesvirus (KSHV)
T1 construct: LANA DBD (aa934-1162) wild type protein (200 nM final) was incubated with
Method: Equation y = A2 + (A1-A2)/(1 + (x/x0)^p)
Fig S1: Binding affinity curves via MST for all compounds. Values are means of at least three replicates.
1.4 Electrophoretic Mobility Shift Assay (EMSA)
The EMSA was carried out with slight modific ations as described previously 2 based on the assay in Hellert et al. (2013). 3 His-tagged oligomerization-deficient LANA DBD (aa1008-1146) mutant protein or LANA DBD (aa934-1162) wild type protein (200 nM final) was incubated with a 5´-Dy682-labeled double stranded DNA probe (IBA Lifesciences) (20 nM final) for 30 minutes at RT in the dark. The reaction buffer consisted of 30 mM Tris HCl pH 7.5, 50 mM KCl, 10 mM MgCl2, 1 mM DTT, 1 mM EDTA, 10% glycerol, 0.25% Tween20, 0.5 mg/mL BSA and 0.05 mg/mL poly(dI-dC). […]
dark. 10 µL of the reaction was run on a pre -run native 5% acrylamide gel for 45 minutes at 100V with tris-borate-EDTA buffer. Images of the gels were acquired and analysed with the Odyssey (Licor) using the Image Studio software.
Fig S2: Gels of EMSA experiments at 250 μM for all compounds (A) and dose-dependent curves for compound 20 using LANA DBD mutant (B) and LANA wildtype (C) as well as LBS1. Values are means […]
Gleichung y = A2 + (A1-A2)/(1 + (x/x0)^p) […]

[2] = Metabolic stability in human liver S9 fraction; format: in vitro ADME; settings: human liver S9, 1 μM compound
Method: (§1) The next step was an in vitro ADMET profiling of the best seven compounds so far: 9, 11, 14, 19, 20, 21, and 27. The compounds were tested for their kinetic solubility (1% DMSO in PBS, pH 7.4), lipophilicity (chromatographic Log D7.4 value), cellular permeability (using Caco-2 cells), and metabolic stability (using mouse and human liver S9 fractions) (see Table 3). […]
(§2) 1.7 Metabolic Stability in Liver S9 Fractions
(§3) For the evaluation of combined phase I and phase II metabolic stability, the compound (1 μM) was incubated with 1 mg/mL pooled mouse liver S9 fraction (Xenotech, Kansas City, USA) or human liver S9 fraction (Corning, USA), 2 mM NADPH, 1 mM UDPGA, 10 mM MgCl 2, 5 mM GSH and 0.1 mM PAPS at 37 °C for 240 min. The metabolic stability of testosterone, verapamil and ketoconazole were determined in parallel to confirm the enzymatic activity of mouse S9 fractions, for human S9 testosterone, diclofenac and propranolol were used. The incubation was stopped after defined time points by precipitation of aliquots of S9 enzymes with 2 volumes of cold acetonitrile containing internal standard (150 nM diphenhydramine). Samples were stored on ice until the end of the incubation and precipitated protein was removed by centrifugation (15 min, 4 °C, 4,000 g). Concentration of the remaining test compound at the different time points was analyzed by HPLC-MS/MS (TSQ Quantum Access MAX, Thermo Fisher, Dreieich, Germany) and used to determine half -life (t1/2). Values are means of three

Chromatographic LogD7.4 = format: physicochemical; settings: reversed-phase HPLC, NUCLEODUR C18 Pyramid column; pH 7.4, HPLC-MS based; read-out: Chrom. LogD7.4
Method: as §1
LogD7.4 was analyzed using an HPLC−MS based method. The retention time of 12 compounds with known LogD7.4 was determined and plotted toward their LogD7.4. Linear regression was used to determine the LogD7.4 of unknown compounds. Analysis was performed using a Dionex Ultimate 3000 HPLC system coupled to a TSQ Quantum Access MAX (Thermo Fisher, Dreieich, Germany) with the following conditions: EC150/2 NUCLEODUR C18 Pyramid column, 5 μM (Macherey Nagel, Düren, Germany); eluent A: 50 mM NH4OAc pH 7.4, eluent B: acetonitrile, and flow: 0.6 mL/min. The gradient was set to 0−100% B from 0 to 2.5 min, […]
are means of two replicates. […]

[3] = Metabolic stability in mouse liver S9 fraction; format: in vitro ADME; settings: pooled liver S9 fraction, mouse liver S9, 1 μM compound
Method: as §1, §2, §3

T1 sequence (Q9QR71 901-1129): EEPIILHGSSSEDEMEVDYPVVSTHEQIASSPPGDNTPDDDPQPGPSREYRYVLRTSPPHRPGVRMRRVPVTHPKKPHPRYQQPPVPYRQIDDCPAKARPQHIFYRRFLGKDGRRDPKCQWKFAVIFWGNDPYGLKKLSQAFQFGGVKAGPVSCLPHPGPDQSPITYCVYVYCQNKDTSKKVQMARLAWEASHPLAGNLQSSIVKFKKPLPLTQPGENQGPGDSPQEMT

COc1ccc(-c2cc(C)c(-n3cc(-c4ccc(C(=O)O)cc4)nn3)cn2)c(Cl)c1 [Compound 20]
IC50 [1]: 205 µM
microsomal CLint at 1 µM ([2]; read-out: MetStab Human Liver S9 Clint): < 5.8 µL/min/mg
half-life at 1 µM ([2]; read-out: MetStab Human Liver S9 t1/2): > 2 h
chromatographic logD (Chromatographic LogD7.4): 0.75
microsomal CLint at 1 µM ([3]; read-out: MetStab Mouse Liver S9 Clint): < 5.8 µL/min/mg
half-life at 1 µM ([3]; read-out: MetStab Mouse Liver S9 t1/2): > 2 h
